In US20060258738A1, “Use of dronabinol for treatment of side effects of Hepatitis C therapy” (priority 2005, published 2006):

Tests used:
[1] = system: GI side effects (nausea/vomiting, anorexia and weight loss) related to anti-HCV therapy; experiment: Retrospective chart review: open label dronabinol for GI side effects of anti-HCV therapy, positive response; type: in vivo, human; conditions: whole cohort
Experimental: A retrospective chart review of 22 patients with chronic HCV receiving IFN (Pegylated n=18, standard n=4) and RBV was performed. All were receiving open label dronabinol for specific GI side effects (nausea/vomiting, anorexia and weight loss) related to anti-HCV therapy. Over half the cohort (13/22) were co-infected with HIV. Demographic, clinical, and virological data was recorded at baseline (pre dronabinol therapy); Body Mass Index (BMI) was calculated at baseline, and at the end of dronabinol therapy.
A positive response to dronabinol was defined as follows: […]
Subjective: Documentation in chart of improvement in symptoms of nausea, vomiting or anorexia, as reported by patient.
Objective: No change or increase in BMI at end of dronabinol treatment compared to baseline.

[2] = Retrospective chart review: adverse events, tolerability and discontinuation of dronabinol

Q: With CCCCCc1cc(O)c2c(c1)OC(C)(C)[C@@H]1CCC(C)=C[C@@H]21 [dronabinol, delta-9-tetrahydrocannabinol] as the compound, how does the “Positive outcome, both for improvement in symptoms and stabilization or increase in BMI” value [1] read?
A: Its value is “over 40%”.

Q: And the Tolerability ([2]; the 4 members of the cohort aged 60 or greater)?
A: Its Tolerability is “well tolerated”.

Q: And the Tolerability ([2]; whole cohort, including those with HIV/HCV)?
A: The Tolerability was “well-tolerated by the majority of the cohort”.
